Entries after “also recorded” stand apart in the source; their conditions may differ. Where two headings read alike, the source gives them in different places.

In data set [1] the test system is TMV. Kind of data set: Inhibition of TMV replication in tobacco protoplasts (homogenates assayed for local lesions). The format is cell-based, tobacco mosaic virus. The conditions noted are these: for inhibition at 0.1 µM: Tobacco mosaic virus, 1 × 10^-7 M, added within 3 hours of infection, average of four experiments. Here is the method:
(§1) Plant material treatment and measurement of infectivity. Partially purified AVF was prepared. The growth of N. glutinosa, N. tabacum Var. "Samsun", N. tabacum cv. Samsun NN, and preparation and inoculation of protoplasts were as described. To evaluate the effect of 2',5'-cores, nucleotides and nucleosides on TMV replication, various concentrations were added to 10 ml of protoplast suspension (1×10^5 cells/ml) at various times after inoculation with TMV. Protoplasts were incubated at 25° C. under continuous illumination of about 1500 Lx. At various times protoplasts were collected by centrifugation and homogenized. The homogenate was inoculated onto 12 half-leaves of N. glutinosa plants and compared to a standard solution of purified TMV on the opposite half-leaves. Lesion counts were adjusted to 10^6 live protoplasts and calibrated. Control protoplasts (no Nucleotides added) were assayed simultaneously. The assays for antiviral activity on TMV-infected tobacco leaf discs were done by enzyme-linked immunosorbent assay. The ability of the 2',5'-cores, nucleosides, and nucleotides to inhibit TMV replication in the intact plant was determined by infectivity tests as follows. Solutions containing 5 μg/ml TMV, 0.1 g carborundum (100 Tyler mesh), and 2',5'-cores, nucleosides, or nucleotides were applied onto 12 half-leaves of N. glutinosa. The remaining half-leaves were controls (inoculated with a solution containing no nucleotides). The infection was allowed to proceed 48 hours under continuous illumination.
the TMVinfected protoplasts within 3 hours of infection.
^b Average of four experiments.
by the 2',5cores, nucleosides and nucleotides was calculated as the
percent of local leasions produced in N. glutinosa treated by homogenates
of protoplasts compared to nontreated protoplasts.

The test system of data set [2] is TMV. Nature of the data set: TMV replication in TMV-infected tobacco leaf discs (ELISA). The format is cell-based, tobacco mosaic virus. The conditions noted are these: up to 2×10^-7 M (FIG. 1). Here is the method: as §1, with “Solutions containing 5 μg/ml TMV, 0.1 g carborundum (100 Tyler mesh), and 2',5'-cores, nucleosides, or nucleotides were applied onto 12 half-leaves of N. glutinosa. The remaining half-leaves were controls (inoculated with a solution containing no nucleotides). The infection was allowed to proceed 48 hours under continuous illumination.” left out
TMV-infected tobacco leaf discs, treatment and TMV determination. […] Discs were removed at various times after TMV inoculation and their TMV content was determined. […]
A general note: ELISA stands for enzyme-linked immunosorbent assay.

Data set [3] has as its system TMV. Nature of the data set: Inhibition of TMV replication in intact N. glutinosa leaves (local lesion infectivity test). The format is in vivo, tobacco mosaic virus. The following applies: for inhibition at 1 µM: Tobacco mosaic virus, 48 h, read-out: Inhibition of TMV replication in N. glutinosa leaves; for Inhibition of TMV replication in N. glutinosa leaves: 1 × 10^-6 M in the infecting solution, 48 hours after infection (Table 3).

For the next data set, the system named is N. glutinosa. The format is in vivo. The conditions noted are these: non-infected plants, 1×10^-6 M, two week period. As to the method: Effect of 2',5'-adenylate trimer core and its analogs on TMV replication in intact plants. […] The cores inhibited the formation of local lesions following TMV infection by 89-99% (Table 3). […] Non-infected plants were treated with 1×10^-6 M 2',5'adenylate trimer core, 2',5'-cordycepin trimer core, 2',5'-A-A-ara-A, and 2',5'-A-A-Tu (data not shown).

The mark [4] stands for this setting: read-out: Inhibition of TMV replication after 24 hr.
The mark [5] stands for this setting: read-out: Inhibition of TMV replication after 48 hr.
[6] abbreviates: read-out: Inhibition of TMV replication after 72 hr.
Setting [7] is: 1×10^-6 M in the TMV-infecting solution.

For `Nc1ncnc2c1ncn2[C@@H]1O[C@H](COP(=O)(O)O)[C@@H](O)[C@H]1O` [AMP], the “Inhibition of TMV replication in protoplasts (in words)” value (“Inhibition … in protoplasts (in words)” for short) in the data set on TMV [1] is recorded as “less inhibitory; also recorded: some inhibition of TMV replication”. For the same compound, the inhibition (usually the drop in the measured response relative to a control, in per cent) at 0.1 µM in the data set on TMV [1] (setting [4]) is 22%; in the data set with TMV [1] (setting [5]), 33%. Moreover, the “Inhibition of TMV replication in tobacco leaf discs (in words)” value with TMV [2] was “no inhibition of TMV replication”. Besides, the inhibition at 1 µM in the data set on TMV [3] was determined as 10%.
On to `Nc1ncnc2c1ncn2[C@@H]1O[C@H](CO)[C@@H](O)[C@H]1O` [Adenosine, adenosine], for which the entries for the “Inhibition … in protoplasts (in words)” value in the data set with TMV [1] and in the data set on TMV [1] (listed as adenosine) were “less inhibitory” and “some inhibition of TMV replication”, respectively. The values for the inhibition at 0.1 µM in the data set on TMV [1] (setting [4]) and with TMV [1] (setting [5]) were 14% and 0%, respectively. Further, the “Inhibition of TMV replication in tobacco leaf discs (in words)” value in the data set with TMV [2] was “no inhibition of TMV replication”. Besides, the inhibition at 1 µM in the data set on TMV [3] is 0%.
Regarding `Nc1ncnc2c1ncn2[C@@H]1O[C@H](COP(=O)(O)O)[C@@H](O)[C@@H]1O` [Ara-AMP], the inhibition at 1 µM in the data set with TMV [3] was found to be 0%.
Still for that read-out and setting: the value for `Nc1ncnc2c1ncn2[C@@H]1O[C@H](CO)[C@@H](O)[C@@H]1O` [Ara-a] was 0%; that for `Nc1ncnc2c1ncn2[C@@H]1O[C@H](COP(=O)(O)O)C[C@H]1O` [Cordycepin monophosphate, Cordycepin 5'-monophosphate] was 0%.
In the case of `Nc1ncnc2c1ncn2[C@@H]1O[C@H](CO)C[C@H]1O` [Cordycepin, cordycepin], the “Inhibition … in protoplasts (in words)” value in the data set with TMV [1] is recorded as “less inhibitory”. For the same compound, the inhibition at 0.1 µM turned out to be 21% with TMV [1] (setting [5]) and 32% in the data set with TMV [1] (setting [6]). Further, in the data set on TMV [3], the inhibition at 1 µM came to 0%.
For `OC[C@H]1O[C@@H](n2cnc3c(O)ncnc32)[C@H](O)[C@@H]1O` [Inosine, inosine], in that order: “less inhibitory”, 22%, 25% and 0%.
As for `Nc1ncnc2c1ccn2[C@@H]1O[C@H](COP(=O)(O)O)[C@@H](O)[C@H]1O` [TuMP, tubercidin 5'-monophosphate], the inhibition at 1 µM in the data set with TMV [3] stood at 0%.
Same read-out and setting: the result for `Nc1ncnc2c1ccn2[C@@H]1O[C@H](CO)[C@@H](O)[C@H]1O` [Tubercidin, tubercidin] reads 0%.
Regarding “adenylyl-(2' 5')-adenylyl-(2' 5')-9-β-D-arabinofuranosyladenine [2',5'-A-A-ara-A]”, the “Inhibition of TMV replication in N. glutinosa (in words)” value was “potent inhibitors of TMV replication” with TMV [3] (setting [7]); “inhibition of TMV replication” in the data set with TMV [3] (no single concentration stated); “also inhibited TMV replication” in the data set on TMV [3] (no single concentration stated, listed as A-A-ara-A). Further, the “Inhibition of TMV replication in N. glutinosa leaves” value in the data set with TMV [3] is 94%. Further, the “Toxicity (chlorosis or necrosis)” value in the data set with N. glutinosa is given as “No toxicity (chlorosis or necrosis) was observed”.
Regarding “adenylyl-(2' 5')-adenylyl-(2' 5)-tubercidin [2',5'-A-A-Tu]”, the “Inhibition of TMV replication in N. glutinosa (in words)” value is “potent inhibitors of TMV replication” with TMV [3] (setting [7]) and “also inhibited TMV replication” with TMV [3] (no single concentration stated). Besides, the “Inhibition of TMV replication in N. glutinosa leaves” value in the data set on TMV [3] is recorded as 95%. Besides, in the data set with N. glutinosa, the “Toxicity (chlorosis or necrosis)” value was “No toxicity (chlorosis or necrosis) was observed”.

The values above are taken from patent publication US4654326A, “Inhibition of plant viruses with oligonucleotides” (priority 1984, dated 1987).
